Like-named read-outs stand apart in the source and are kept apart here. Starred links: 1 amine or outer side, 2 acyl side, 3 side chain; linkers in the order of their positions; H or OH if unused. Positions of bridges follow the written chain, without caps; N, C: chain ends. Non-standard residues stand in square brackets, D forms with d. Residues, ends and D or L forms follow the SMILES beside them. X14 = CCOP(=O)(OCC)C(F)(F)c1ccc(C[C@H](N[*:1])C(=O)[*:2])cc1; Trp(5-F) = N[C@@H](Cc1c[nH]c2ccc(F)cc12)C(=O)O; Phe(4-CH2NH2) = NCc1ccc(C[C@H](N)C(=O)O)cc1; Pro(cis-4-F) = O=C(O)[C@@H]1C[C@H](F)CN1; X4 = O=C(CCSCc1cccc(CSCCN[*:1])c1)[*:2]; mXylylene = c1cc(C[*:1])cc(C[*:2])c1; AEF = NCCOc1ccc(C[C@H](N)C(=O)O)cc1; NMeD = CN[C@@H](CC(=O)O)C(=O)O; aThr = C[C@H](O)[C@H](N)C(=O)O; αMeP = C[C@@]1(C(=O)O)CCCN1; Mpa = O=C(O)CCS
How the values were obtained:
[1] = target: human PCSK9 / human LDLR EGFa domain interaction (Homo sapiens (Human), UniProt Q8NBP7); experiment: TR-FRET assay of inhibition of the PCSK9-LDLR protein-protein interaction; type: binding
human PCSK9 / human LDLR EGFa domain interaction, sequence (Q8NBP7 153-692): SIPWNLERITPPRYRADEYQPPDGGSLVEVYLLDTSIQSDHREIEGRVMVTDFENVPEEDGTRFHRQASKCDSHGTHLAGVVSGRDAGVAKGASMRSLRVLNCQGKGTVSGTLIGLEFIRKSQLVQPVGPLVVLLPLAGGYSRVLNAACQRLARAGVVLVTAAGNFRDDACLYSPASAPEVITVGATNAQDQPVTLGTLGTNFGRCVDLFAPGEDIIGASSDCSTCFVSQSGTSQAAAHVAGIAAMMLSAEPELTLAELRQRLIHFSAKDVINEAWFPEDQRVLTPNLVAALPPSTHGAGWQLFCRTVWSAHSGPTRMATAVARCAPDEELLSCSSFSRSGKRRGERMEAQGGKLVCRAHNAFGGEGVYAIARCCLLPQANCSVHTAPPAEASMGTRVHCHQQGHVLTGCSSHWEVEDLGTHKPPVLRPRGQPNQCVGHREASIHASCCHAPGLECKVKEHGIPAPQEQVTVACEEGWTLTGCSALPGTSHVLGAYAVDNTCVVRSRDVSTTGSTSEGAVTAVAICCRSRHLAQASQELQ
human PCSK9 / human LDLR EGFa domain interaction, sequence (Q8NBP7 31-152 partner): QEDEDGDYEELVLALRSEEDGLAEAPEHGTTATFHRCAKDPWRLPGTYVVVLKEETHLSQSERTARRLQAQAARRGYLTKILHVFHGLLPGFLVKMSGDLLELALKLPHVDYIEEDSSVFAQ
Outline: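 Readout is the TR-FRET signal between europium anti-6×His on his-tagged LDLR EGFa domain and Ulight streptavidin on biotinylated PCSK9, both proteins at 20 nM and both detection reagents at 5 nM. Incubation lasted 2 hours at room temperature; compounds were run in dose-response with a 4-parameter fit.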

PCSK9 = PCSK9 (Homo sapiens (Human), UniProt Q8NBP7); experiment: PCSK9 Alexa FRET Standard assay (displacement of AlexaFluor647 tagged cyclic peptide Reagent A); type: binding; conditions: 0.5 nM PCSK9, 20 nM AF cyclic peptide Reagent A
PCSK9, sequence (Q8NBP7 153-692): as the sequence (Q8NBP7 153-692) above
Outline: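 TR-FRET displacement: 0.5 nM biotinylated PCSK9 with 1.25 nM Strep-Eu and 20 nM AlexaFluor-tagged cyclic peptide (final) in 50 mM HEPES pH 7.4, 0.15 M NaCl, 5 mM CaCl2, 0.01% BSA, 0.01% P20, ≥2 h at room temperature. IC50 from sigmoidal fit, converted to Ki via peptide KD; falling Eu counts flagged false positives.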

[2] = TR-FRET, 20 nM human PCSK9, 20 nM human LDLR EGFa domain, 2 hours room temperature, read-out: IC50
[3] = PCSK9 Alexa FRET Standard assay, read-out: IC50

Row | IC50 [1, 2] [nM] | IC50 (PCSK9; [3]) [nM] | Compound | IC50 [1] [nM] | IC50 (PCSK9; IC50, PCSK9 Alexa FRET Standard assay) [nM]
1 | 0.1 to 100 | 0.11 to 100 | COc1ccc(C[C@@H]2NC(=O)[C@H]([C@@H](C)O)NC(=O)[C@@H]3C[C@H](F)CN3C(=O)[C@H](Cc3c[nH]c4ccc(F)cc34)NC(=O)[C@H](Cc3c[nH]c4ccc(F)cc34)NC(=O)[C@@H](C)NC(=O)[C@H](CCCCN)NC(=O)[C@@H](NC(C)=O)CC(=O)NCc3ccc(cc3)C[C@@H](C(N)=O)NC(=O)[C@]3(C)CCCN3C2=O)cc1 [Compound 066] (Ac-DK[dA][Trp(5-F)][Trp(5-F)][Pro(cis-4-F)]TY(Me)[αMeP][Phe(4-CH2NH2)]-NH2; lactam 1-10) | – | –
2 | 0.1 to 100 | 100 to 1000 | COc1ccc(C[C@@H]2NC(=O)[C@H]([C@@H](C)O)NC(=O)[C@@H]3C[C@H](F)CN3C(=O)[C@H](Cc3c[nH]c4ccc(F)cc34)NC(=O)[C@H](Cc3c[nH]c4ccc(F)cc34)NC(=O)[C@@H](C)NC(=O)[C@H](CCCCN)NC(=O)[C@@H](NC(C)=O)CC(=O)NCCOc3ccc(cc3)C[C@@H](C(N)=O)NC(=O)[C@]3(C)CCCN3C2=O)cc1 [Compound 067] (Ac-DK[dA][Trp(5-F)][Trp(5-F)][Pro(cis-4-F)]TY(Me)[αMeP][AEF]-NH2; lactam 1-10) | – | –
3 | 0.1 to 100 | 0.11 to 100 | COc1ccc(C[C@@H]2NC(=O)[C@H]([C@H](C)O)NC(=O)[C@@H]3C[C@H](F)CN3C(=O)[C@H](Cc3c[nH]c4ccc(F)cc34)NC(=O)[C@H](Cc3c[nH]c4ccc(F)cc34)NC(=O)[C@@H](C)NC(=O)[C@H](CCCCN)NC(=O)[C@H](NC(C)=O)CCc3cn(nn3)-c3ccc(cc3)C[C@@H](C(N)=O)NC(=O)[C@]3(C)CCCN3C2=O)cc1 [Compound 068] | – | –
4 | 100 to 1000 | 1000 to 12100 | COc1ccc(C[C@@H]2NC(=O)[C@H]([C@H](C)OC)NC(=O)[C@@H]3C[C@H](F)CN3C(=O)[C@H](Cc3c[nH]c4ccc(F)cc34)NC(=O)[C@H](Cc3c[nH]c4ccc(F)cc34)NC(=O)[C@@H](C)NC(=O)[C@H](CCCCN)NC(=O)CCSCc3cccc(c3)CSC[C@@H](C(N)=O)NC(=O)[C@]3(C)CCCN3C2=O)cc1 [Compound 072] ([Mpa]K[dA][Trp(5-F)][Trp(5-F)][Pro(cis-4-F)][aThr](Me)Y(Me)[αMeP]C-NH2; linker 1-10 via mXylylene) | – | –
5 | – | – | CCOP(=O)(OCC)C(F)(F)c1ccc(C[C@@H]2NC(=O)[C@H]([C@@H](C)O)NC(=O)[C@@H]3CCCN3C(=O)[C@H](Cc3c[nH]c4ccc(F)cc34)NC(=O)[C@H](Cc3c[nH]c4ccc(F)cc34)NC(=O)[C@@H](C)NC(=O)[C@H](CCCCN)NC(=O)CCSCc3cccc(c3)CSCCNC(=O)[C@]3(C)CCCN3C2=O)cc1 [Compound 131] (cyclo(K[dA][Trp(5-F)][Trp(5-F)]PT[X14][αMeP][X4])) | 100 to 1000 | 1000 to 12100
6 | 1000 to 12100 | 1000 to 12100 | CCCCCCCCCCCCCCCC(=O)N[C@@H](CCC(=O)NCCOCCOCC(=O)NCCOCCOCC(=O)NCCCC[C@H](NC(=O)CCOCCOCCOCCOCCOCCOCCOCCOCCNC(=O)CCOCCOCCOCCOCCOCCOCCOCCOCCOCCOCCOCCOCCNC(=O)[C@@H]1CSCc2cccc(c2)CSCCC(=O)N[C@@H](C)C(=O)N[C@H](C)C(=O)N[C@@H](Cc2c[nH]c3ccc(F)cc23)C(=O)N[C@@H](Cc2c[nH]c3ccc(F)cc23)C(=O)[C@@H]2C[C@H](F)CN2C(=O)N[C@@H]([C@@H](C)O)C(=O)N[C@@H](Cc2ccc(O)cc2)C(=O)N2CCC[C@@]2(C)C(=O)N1)C(N)=O)C(=O)O [Compound 133] | – | –
7 | 1000 to 12100 | 1000 to 12100 | NCCCC[C@@H]1NC(=O)CCSCc2cccc(c2)CSC[C@@H](C(N)=O)NC(=O)[C@@H]2CCCN2C(=O)[C@H](Cc2ccc(O)cc2)NC(=O)[C@H](Cc2c[nH]cn2)NC(=O)[C@H](CC(=O)O)NC(=O)[C@H](Cc2c[nH]c3ccc(F)cc23)NC(=O)[C@H](Cc2c[nH]c3ccc(F)cc23)NC(=O)CNC1=O [Compound 149] ([Mpa]KG[Trp(5-F)][Trp(5-F)]DHYPC-NH2; linker 1-10 via mXylylene) | – | –
8 | 0.1 to 100 | 100 to 1000 | CN1C(=O)[C@H](Cc2c[nH]c3ccc(F)cc23)NC(=O)[C@H](Cc2c[nH]c3ccc(F)cc23)NC(=O)CNC(=O)[C@H](CCCCN)NC(=O)CCSCc2cccc(c2)CSC[C@@H](C(N)=O)NC(=O)[C@@H]2CCCN2C(=O)[C@H](Cc2ccc(O)cc2)NC(=O)[C@H](Cc2cnc[nH]2)NC(=O)[C@@H]1CC(=O)O [Compound 171] ([Mpa]KG[Trp(5-F)][Trp(5-F)][NMeD]HYPC-NH2; linker 1-10 via mXylylene) | – | –

Row | Compound | IC50 [1, 2] [nM] | IC50 (PCSK9; [3]) [nM] | IC50 [1] [nM] | IC50 (PCSK9; IC50, PCSK9 Alexa FRET Standard assay) [nM]
9 | COc1ccc(C[C@@H]2NC(=O)[C@H]([C@@H](C)O)NC(=O)[C@@H]3C[C@H](F)CN3C(=O)[C@H](Cc3c[nH]c4ccc(F)cc34)NC(=O)[C@H](Cc3c[nH]c4ccc(F)cc34)NC(=O)[C@@H](C)NC(=O)[C@H](CCCCN)NC(=O)CCC/C=C\Cc3ccc(cc3)C[C@@H](C(N)=O)NC(=O)[C@]3(C)CCCN3C2=O)cc1 [Compound 132] | 21000 to 50000 | 21000 to 50000 | – | –
